Assays:
[1] = Loss of standard purines added to whole blood (residual ADA activity); assay type: in vitro ADME; conditions: whole blood without EHNA
Procedure: DBS calibrators could not be prepared in this work due to residual ADA activity that persisted after traditional enzyme deactivation treatments such as freeze-thawing or heating whole blood at 45° C. for 24 hours. EHNA, a specific ADA inhibitor, was added to whole blood to prevent the deamination of Ado and dAdo to inosine and deoxyinosine, respectively. Purine metabolites were extracted from 3.2 mm dried calibrators or DBS specimens using an aqueous solution of 70% methanol (v/v) containing isotope labeled IS. This solution was added directly into a 96-well plate containing samples and incubated at 37° C. with shaking (650 rpm). The extraction yield reached its maximum at 15 minutes or more. The following experiments therefore were performed at 37° C. for 15 min. Purine metabolites were stable for at least 24 h when stored in a tightly sealed vial at 8° C.
SCID newborn screening began in the United States following the recent addition of this condition to the uniform panel as recommended by the US Department of Health and Human Services. In Canada, Ontario was the first jurisdiction to screen for SCID, which began in August, 2013. TREC analysis is the primary screening method and can be achieved by real-time PCR using neonatal DBS, the sample of choice for newborn screening. However, TREC analysis is inadequate to provide additional information regarding the etiology of SCID. […]

[2] = Stability of purine metabolites in DBS on storage; assay type: physicochemical; conditions: 5 and 25 μmol/L in DBS, stored 4.5 weeks at −20° C., 23° C. (ambient) and 30° C.
Procedure: Stability of purine metabolites in DBS was assessed by storing spiked samples (5 and 25 μmol/L) at various temperatures (ambient, −20° C. and 30° C.). Analysis was carried out as described over a period of […].
Analysis of DBS specimens containing Ado, dAdo, Gua and dGua at 5 and 25 μmol/L stored for a period of 4.5 weeks at −20° C., 23° C.

ADA = ADA (Homo sapiens, UniProt P00813); conditions: DBS eluate, substrate 1.0 μmol/L, 37° C., 30 minutes or more
Chain of ADA (P00813 whole entry): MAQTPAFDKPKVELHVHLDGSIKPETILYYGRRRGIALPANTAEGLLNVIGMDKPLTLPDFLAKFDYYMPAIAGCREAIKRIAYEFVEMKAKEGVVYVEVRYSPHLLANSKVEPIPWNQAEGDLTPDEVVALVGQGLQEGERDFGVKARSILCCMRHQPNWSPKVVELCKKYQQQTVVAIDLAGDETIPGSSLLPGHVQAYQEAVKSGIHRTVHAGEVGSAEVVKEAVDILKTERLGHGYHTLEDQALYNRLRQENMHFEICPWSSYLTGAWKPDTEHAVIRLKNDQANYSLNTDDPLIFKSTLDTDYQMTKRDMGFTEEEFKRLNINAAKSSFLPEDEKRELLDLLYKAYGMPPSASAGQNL
Procedure: A 3.2 mm DBS sample was punched into the designated well of a 96 multi-well filter plate (Pall Corp, Ann Arbor, Mich., USA) and eluted using 120 μl of water by shaking at 650 rpm (24° C. for 30 min). After filtration under vacuum, two 40 μl portions of the eluate were dispensed into two 2 ml microtubes (Axygen, Union City, Calif., USA) and labeled Test and Blank. To the tube labeled Test, 10 μl of 10 μmol/l of EHNA in water were added whereas water (10 μl) was added to Blank tubes. The tubes were vortexed for 10 sec and allowed to sit at room temperature for 5 min. To each tube, 50 μl 2 mmol/L ammonium acetate containing 1 μmol/L of ^13C10, ^15N5 Ado and ^15N5 dAdo were added as ADA substrates. The mixture was incubated at 37° C. with shaking (20 rpm). After 30 minutes, the enzymatic reaction was stopped by adding 400 μl of acetonitrile containing ^13C5 Ado (0.125 μmol/L) and the mixture was vortexed for 30 sec. […] The enzyme activity expressed as pmol of residual substrate per DBS was measured by calculating the difference of ^13C10, ^15N5 Ado and ^15N5 dAdo in Test and Blank after the enzymatic reaction.
ADA activity assay conditions were determined by monitoring the enzyme reaction (up to 60 min), substrate concentration (1-10 μmol/L), EHNA concentration (2.5-160 NM) and incubation temperature (30-60° C.).

Row | Stability on adding standard purines to whole blood [1] | Stability in DBS specimens [2] | Optimum EHNA concentration for ADA activity measurements (ADA) [µM] | Molecule
1 | immediate loss | stable | – | Nc1ncnc2c1ncn2[C@H]1C[C@H](O)[C@@H](CO)O1 [dAdo, deoxyadenosine]
2 | – | stable | – | Nc1nc2c(ncn2[C@H]2C[C@H](O)[C@@H](CO)O2)c(=O)[nH]1 [dGua, deoxyguanosine]

The remaining lines, values behind:

Row | Molecule | Stability on adding standard purines to whole blood [1] | Stability in DBS specimens [2] | Optimum EHNA concentration for ADA activity measurements (ADA) [µM]
3 | Nc1ncnc2c1ncn2[C@@H]1O[C@H](CO)[C@@H](O)[C@H]1O [Ado, adenosine] | immediate loss | stable | –
4 | Nc1nc2c(ncn2[C@@H]2O[C@H](CO)[C@@H](O)[C@H]2O)c(=O)[nH]1 [Gua, guanosine] | – | stable | –
5 | erythro-9-(2-hydroxy-3-nonyl) adenine [EHNA] | – | – | ≥ 10

Source: US20170283850A1, “METHODS OF DETECTING ADENOSINE DEAMINASE DEFICIENCY” (CHILDREN'S HOSPITAL OF EASTERN ONTARIO, priority 2014, published 2017)
